# According to ChEMBL document CHEMBL1157164, “Computational analysis of the binding affinities of the natural-product cyclopentapeptides argifin and argadin to chitinase B from Serratia marcescens” (Bioorg Med Chem, 2008):
# Tests used:
# Chitinase B = biological target: T1, Chitinase B (Serratia marcescens, UniProt P11797); assay: Binding affinity to Serratia marcescens chitinase B
# T1 sequence (P11797 whole entry): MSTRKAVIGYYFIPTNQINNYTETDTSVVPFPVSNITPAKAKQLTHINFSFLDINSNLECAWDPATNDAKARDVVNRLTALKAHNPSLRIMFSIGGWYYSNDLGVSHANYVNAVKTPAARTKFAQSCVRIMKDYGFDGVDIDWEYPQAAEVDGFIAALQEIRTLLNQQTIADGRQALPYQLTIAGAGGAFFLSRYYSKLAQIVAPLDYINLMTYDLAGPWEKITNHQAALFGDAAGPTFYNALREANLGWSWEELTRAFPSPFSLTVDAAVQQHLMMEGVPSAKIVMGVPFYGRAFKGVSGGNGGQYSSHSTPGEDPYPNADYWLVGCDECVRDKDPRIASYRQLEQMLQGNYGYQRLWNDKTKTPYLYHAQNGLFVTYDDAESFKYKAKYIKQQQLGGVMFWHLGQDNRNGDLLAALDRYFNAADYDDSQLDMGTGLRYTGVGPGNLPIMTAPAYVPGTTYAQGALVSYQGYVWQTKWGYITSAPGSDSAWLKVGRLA
# [1] = Inhibition of Lucilia cuprina chitinase B
Structure (SMILES),IC50 (Chitinase B),Ki [1]
CNC(=O)NC(=N)NCCC[C@@H]1NC(=O)[C@@H](C)NC(=O)C[C@@H](C(=O)O)NC(=O)C[C@@H](C(=O)O)NC(=O)[C@H](Cc2ccccc2)N(C)C1=O [ARGIFIN],100 nM,33000 nM
CC(=O)NC(=N)NCCC[C@@H]1NC(=O)[C@H](CCCC(=O)O)NC(=O)[C@H](Cc2c[nH]cn2)N2C(=O)[C@H](C[C@H]2O)NC(=O)[C@H]2CCCN2C1=O [ARGADIN],3.4 nM,20 nM
